Experimental data as given in US20210317140A1, “Heterocyclic Compounds and Methods of Use” (MEDIVATION TECHNOLOGIES, INC, priority 2013, published 2021).

Key:
[1] = target: T1, BTK (Homo sapiens, UniProt Q06187); test: BTK kinase assay (HotSpot, 33P ATP); type: biochemical; settings: for BTK @ 0.1 μM (% Inh): 0.1 μM compound, 10 μM ATP; for IC50: 10 dose IC50, 10 μM ATP
T1 construct: purchased Reaction Biology Corporation
How it was run: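 In 20 mM Hepes (pH 7.5) with 10 mM MgCl2, 1 mM EGTA, 0.1 mM Na3VO4, 2 mM DTT, 0.02% Brij35, 0.02 mg/mL BSA and 1% DMSO, kinase and substrate were exposed to ten compound doses for 15–20 min.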

[2] = target: T2, TEC (Homo sapiens, UniProt P42680); test: TEC kinase profiling (BTK protocol); type: biochemical; settings: 0.3 μM compound
T2 construct: purchased Reaction Biology Corporation
T2 sequence (P42680 1-631): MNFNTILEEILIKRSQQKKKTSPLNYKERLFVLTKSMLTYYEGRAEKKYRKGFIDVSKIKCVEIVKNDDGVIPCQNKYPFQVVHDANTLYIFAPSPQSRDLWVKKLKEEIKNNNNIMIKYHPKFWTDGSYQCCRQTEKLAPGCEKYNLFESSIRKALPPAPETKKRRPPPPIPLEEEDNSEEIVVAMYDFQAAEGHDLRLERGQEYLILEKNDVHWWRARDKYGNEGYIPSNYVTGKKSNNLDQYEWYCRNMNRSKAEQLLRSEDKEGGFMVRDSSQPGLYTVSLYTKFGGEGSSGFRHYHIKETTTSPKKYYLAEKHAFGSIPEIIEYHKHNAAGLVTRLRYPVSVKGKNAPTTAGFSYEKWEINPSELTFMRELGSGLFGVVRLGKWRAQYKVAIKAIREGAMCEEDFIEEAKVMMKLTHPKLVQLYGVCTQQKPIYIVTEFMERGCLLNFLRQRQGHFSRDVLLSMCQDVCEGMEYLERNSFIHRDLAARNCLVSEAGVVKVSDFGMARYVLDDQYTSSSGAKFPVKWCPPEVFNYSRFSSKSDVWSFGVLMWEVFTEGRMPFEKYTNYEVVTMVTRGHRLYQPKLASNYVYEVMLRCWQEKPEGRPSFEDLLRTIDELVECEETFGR
Method: (§1) BTK assay: In vitro profiling protein kinases was performed using the “HotSpot” assay platform. Briefly, specific kinase/substrate pairs along with required cofactors were prepared in reaction buffer. Compounds were prepared as 10 mM stock solutions in DMSO. Compounds were delivered into the reaction, followed 15-20 minutes later by addition of a mixture of ATP (Sigma, St. Louis Mo.) and ^33P ATP (Perkin Elmer, Waltham Mass.) to a final concentration of 10 μM. […] IC50 values and curve fits were obtained using Prism (GraphPad Software). Buffer Conditions: 20 mM Hepes (pH 7.5), 10 mM MgCl2, 1 mM EGTA, 0.02% Brij35, 0.02 mg/mL BSA, 0.1 mM Na3VO4, 2 mM DTT, 1% DMSO.

[3] = tested on: CD69+B220+ cells; test: B cell activation assay (IgD-stimulated splenocytes, CD69+B220+ cells by FACS); type: cell-based; settings: 100 nM compound, mouse splenocytes, IgD 3 μg/mL, 4 h
How it was run: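 Read-out is percent CD69+ among live B220+ cells by FACS after 4 h stimulation with 3 μg/mL IgD at 37 °C. Before stimulation, splenocytes from one female mouse (10^6 cells/mL) received 100 nM compound for 30 min.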

[4] = target: T3, ITK (Homo sapiens, UniProt Q08881); test: ITK kinase profiling (BTK protocol); type: biochemical; settings: 0.3 μM compound
T3 construct: purchased Reaction Biology Corporation
T3 sequence (Q08881 1-620): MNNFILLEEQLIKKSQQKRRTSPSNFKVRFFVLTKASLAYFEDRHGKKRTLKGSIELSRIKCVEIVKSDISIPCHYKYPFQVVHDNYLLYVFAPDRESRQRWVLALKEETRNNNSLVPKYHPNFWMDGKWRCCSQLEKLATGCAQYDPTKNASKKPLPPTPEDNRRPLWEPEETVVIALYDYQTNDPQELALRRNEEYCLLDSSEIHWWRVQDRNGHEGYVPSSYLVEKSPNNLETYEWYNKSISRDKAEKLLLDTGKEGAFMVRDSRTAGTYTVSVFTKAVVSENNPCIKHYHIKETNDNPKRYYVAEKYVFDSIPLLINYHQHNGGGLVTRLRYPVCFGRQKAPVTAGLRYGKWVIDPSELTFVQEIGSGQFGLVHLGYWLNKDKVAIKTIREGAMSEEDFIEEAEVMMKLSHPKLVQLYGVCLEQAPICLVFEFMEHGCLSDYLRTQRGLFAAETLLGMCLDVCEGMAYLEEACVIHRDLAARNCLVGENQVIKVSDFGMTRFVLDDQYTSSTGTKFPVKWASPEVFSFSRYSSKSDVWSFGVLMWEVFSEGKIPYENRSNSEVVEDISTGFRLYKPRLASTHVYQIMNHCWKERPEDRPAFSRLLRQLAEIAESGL
Method: as §1

[5] = target: T4, PI3Kα (Homo sapiens, UniProt P42336); test: PI3Kα isoform profiling (PI3Kδ protocol); type: biochemical; settings: 0.3 μM compound
T4 construct: purchased Reaction Biology Corporation
T4 sequence (P42336 whole entry, canonical isoform): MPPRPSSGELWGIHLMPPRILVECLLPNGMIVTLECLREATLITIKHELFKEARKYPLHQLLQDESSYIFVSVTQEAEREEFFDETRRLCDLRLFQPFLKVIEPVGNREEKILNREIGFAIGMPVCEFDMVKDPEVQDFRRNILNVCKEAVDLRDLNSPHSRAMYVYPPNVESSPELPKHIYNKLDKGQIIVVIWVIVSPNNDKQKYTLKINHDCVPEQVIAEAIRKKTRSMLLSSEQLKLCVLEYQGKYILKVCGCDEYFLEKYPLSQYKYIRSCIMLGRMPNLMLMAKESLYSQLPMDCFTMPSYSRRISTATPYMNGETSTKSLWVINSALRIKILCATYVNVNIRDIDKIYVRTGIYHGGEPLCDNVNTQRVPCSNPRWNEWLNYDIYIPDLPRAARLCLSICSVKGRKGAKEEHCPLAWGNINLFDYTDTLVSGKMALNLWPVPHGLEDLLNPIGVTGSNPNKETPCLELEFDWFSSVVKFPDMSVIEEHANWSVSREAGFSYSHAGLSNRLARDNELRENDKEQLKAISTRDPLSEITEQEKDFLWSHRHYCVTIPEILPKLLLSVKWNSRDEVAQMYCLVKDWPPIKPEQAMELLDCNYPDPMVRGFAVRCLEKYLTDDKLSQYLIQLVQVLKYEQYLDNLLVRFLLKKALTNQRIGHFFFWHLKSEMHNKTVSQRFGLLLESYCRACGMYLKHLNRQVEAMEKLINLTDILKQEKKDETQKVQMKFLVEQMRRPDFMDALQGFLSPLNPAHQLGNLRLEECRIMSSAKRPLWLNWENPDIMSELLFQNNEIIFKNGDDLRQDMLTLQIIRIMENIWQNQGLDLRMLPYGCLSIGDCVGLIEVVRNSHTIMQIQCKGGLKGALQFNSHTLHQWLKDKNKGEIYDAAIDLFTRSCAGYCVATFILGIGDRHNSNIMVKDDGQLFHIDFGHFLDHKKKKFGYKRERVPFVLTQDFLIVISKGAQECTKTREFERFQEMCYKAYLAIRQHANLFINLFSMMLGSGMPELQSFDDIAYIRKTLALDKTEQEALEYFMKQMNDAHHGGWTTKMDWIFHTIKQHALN
T4 sequence (P27986 whole entry partner, canonical isoform): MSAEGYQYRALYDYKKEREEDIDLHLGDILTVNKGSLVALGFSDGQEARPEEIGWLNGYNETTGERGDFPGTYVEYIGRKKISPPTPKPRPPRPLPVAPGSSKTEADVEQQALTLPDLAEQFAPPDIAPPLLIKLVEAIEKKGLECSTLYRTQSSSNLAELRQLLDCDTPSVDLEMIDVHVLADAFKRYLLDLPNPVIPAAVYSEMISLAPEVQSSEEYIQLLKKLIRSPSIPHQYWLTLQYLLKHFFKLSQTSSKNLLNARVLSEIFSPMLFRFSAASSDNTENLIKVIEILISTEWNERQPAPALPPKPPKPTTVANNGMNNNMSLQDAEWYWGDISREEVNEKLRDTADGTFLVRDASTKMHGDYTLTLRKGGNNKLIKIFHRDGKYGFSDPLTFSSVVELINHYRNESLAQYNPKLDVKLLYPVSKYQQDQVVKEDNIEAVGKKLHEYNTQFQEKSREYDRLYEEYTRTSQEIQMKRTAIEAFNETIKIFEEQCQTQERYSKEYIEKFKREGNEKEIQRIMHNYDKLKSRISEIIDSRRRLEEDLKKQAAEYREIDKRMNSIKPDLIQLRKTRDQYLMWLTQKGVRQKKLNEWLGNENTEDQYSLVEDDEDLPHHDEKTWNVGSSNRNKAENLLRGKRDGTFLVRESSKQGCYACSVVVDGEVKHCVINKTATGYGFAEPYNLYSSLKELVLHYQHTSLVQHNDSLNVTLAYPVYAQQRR
Description: PI3Kδ assay: The PIP3 product is detected by displacement of biotin-PIP3 from an energy transfer complex consisting of Europium labeled anti-GST monoclonal antibody, a GST-tagged pleckstrin homology (PH) domain, biotinylated PIP3 and Streptavidin-Allophycocyanin (APC). Excitation of Europium in the complex results in an energy transfer to the APC and a fluorescent emission at 665 nm. The PIP3 product formed by PI 3-Kinase(h) activity displaces biotin-PIP3 from the complex resulting in a loss of energy transfer and thus a decrease in signal. This is a 3-step reaction: First, the kinase reaction with PIP2 substrate is carried out in the presence of ATP (10 μM), and the reaction is quenched with stop Solution, and then finally detect by adding Detection Mixture followed by incubation (10 min). Reaction procedure: 1) Prepare substrate in freshly prepared Reaction Buffer. 2) Deliver kinase into the substrate solution and gently mix. 3) Deliver compounds in 100% DMSO (1 μM) into the kinase reaction mixture by Acoustic technology (Echo550; nanoliter range), incubate for 10 min at RT. 4) Deliver ATP into the reaction mixture to initiate the reaction. 5) Incubate for 30 min at 30° C. 6) Quench the reaction with Stop Solution. 7) Add Detection Mixture, and incubate for overnight. 8) Measure HTRF: Ex=320 nm, ratio of Em=615 nm and Em=665 nm. The emission ratio is converted into μM PIP3 production based on PIP3 standard curves. The nonlinear regression to obtain the standard curve and IC50 values are performed using Graphpad Prism software. Assay Buffer: HEPES 50 mM (pH7.0), NaN3 0.02%, BSA 0.01%, Orthovanadate 0.1 mM, 1% DMSO. Detection buffer: HEPES 10 mM (pH7.0), BSA 0.02%, KF 0.16 M, EDTA 4 mM. Substrate: 10 μM PIP2 substrate (PI(4,5)P2).
Compounds of the invention were profiled in a 10 dose IC50 panel against PI3Kα, PI3Kβ, and PI3Kγ kinases, provided by Reaction Biology Corporation, applied to the PI3Kδ protocol provided in Example B1.

T1 sequence (Q06187 whole entry): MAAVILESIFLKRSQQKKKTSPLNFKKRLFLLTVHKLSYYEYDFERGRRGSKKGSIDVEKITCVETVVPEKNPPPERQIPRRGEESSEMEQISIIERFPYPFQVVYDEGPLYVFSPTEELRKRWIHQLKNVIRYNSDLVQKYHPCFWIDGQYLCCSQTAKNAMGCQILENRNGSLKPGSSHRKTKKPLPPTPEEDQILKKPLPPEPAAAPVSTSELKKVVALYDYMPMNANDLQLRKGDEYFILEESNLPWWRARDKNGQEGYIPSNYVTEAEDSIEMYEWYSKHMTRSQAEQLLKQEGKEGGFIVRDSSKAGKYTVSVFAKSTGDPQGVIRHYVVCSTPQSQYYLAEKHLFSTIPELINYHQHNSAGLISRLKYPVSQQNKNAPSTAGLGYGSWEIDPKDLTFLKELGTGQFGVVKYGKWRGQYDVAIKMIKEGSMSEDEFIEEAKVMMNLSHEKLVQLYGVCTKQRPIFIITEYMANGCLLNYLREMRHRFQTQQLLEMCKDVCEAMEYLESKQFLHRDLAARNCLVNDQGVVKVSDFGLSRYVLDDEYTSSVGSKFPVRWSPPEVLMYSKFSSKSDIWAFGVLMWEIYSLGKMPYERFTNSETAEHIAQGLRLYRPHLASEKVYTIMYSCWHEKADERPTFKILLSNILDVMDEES

SMILES | BTK @ 0.1 μM (% Inh) [1] | IC50 [1] | TEC @ 0.3 μM (% Inh) [2] | CD69 @ 100 nM (% Inh) [3] | ITK @ 0.3 μM (% Inh) [4] | PI3Kα @ 0.3 μM (% Inh) [5]
COc1ccc(-c2nn(C3CCc4ccccc4C3)c3ncnc(N)c23)cc1OC (racemic) [compound 17, 3-(3,4-dimethoxyphenyl)-1-(1,2,3,4-tetrahydronaphthalen-2-yl)-1H-pyrazolo[3,4-d]pyrimidin-4-amine] | 41.16 % Inh | 164 nM | 11.45 % Inh | 33.56 ± 13.70 (n = 5) % Inh | −0.36 % Inh | –
Nc1ncnc2c1c(-c1ccc(Br)c(O)c1)nn2C1CCc2ccccc2C1 (stereo not shown) [compound 8, 5-(4-amino-1-(1,2,3,4-tetrahydronaphthalen-2-yl)-1H-pyrazolo[3,4-d]pyrimidin-3-yl)-2-bromophenol] | 48.87 % Inh | 26.1 nM | 20.18 % Inh | – | 0.02 % Inh | 76.76 % Inh
